IC50 data for nine compounds are collected here from BindingDB's records for doi:10.1021/cc1000488 (German University In Cairo, 2010).

This assay concerns the target Mitogen-activated protein kinase 14 (Homo sapiens, UniProt Q16539). The assay can be described thus: P38 MAP Kinase Assay. The note with it: pH 7.5; 37 °C. From the text:
Kinase assay using p38alpha MAP.

The structures appear in SMILES notation.

Chain of Mitogen-activated protein kinase 14 (Q16539 whole entry): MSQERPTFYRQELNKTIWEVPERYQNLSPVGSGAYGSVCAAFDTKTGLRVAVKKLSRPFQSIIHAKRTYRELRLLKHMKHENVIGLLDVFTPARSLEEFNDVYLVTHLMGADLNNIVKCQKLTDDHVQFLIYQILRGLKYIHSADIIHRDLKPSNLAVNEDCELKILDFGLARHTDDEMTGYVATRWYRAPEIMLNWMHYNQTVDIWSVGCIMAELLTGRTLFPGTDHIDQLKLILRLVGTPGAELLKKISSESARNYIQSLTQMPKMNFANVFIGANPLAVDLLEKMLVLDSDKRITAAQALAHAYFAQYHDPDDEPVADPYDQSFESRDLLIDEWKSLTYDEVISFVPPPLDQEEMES

For `COc1cc(-c2cc(-c3ccc(Br)cc3)nc(N)c2C#N)cc(OC)c1OC` [MAP Kinase Inhibitor, 1], the IC50 (in general, the point on the concentration scale where inhibition reaches its midpoint) stood at 2000 nM.

With `Cc1ccc(-c2cc(-c3ccc(Br)cc3)nc(N)c2C#N)o1` [MAP Kinase Inhibitor, 2], the midpoint of inhibition, the IC50, lay at 70 nM.

In the case of `N#Cc1c(-c2cccnc2)cc(-c2ccc(Br)cc2)nc1N` [MAP Kinase Inhibitor, 3], it took 3700 nM to reach half-maximal inhibition (IC50).

The compound `N#Cc1c(-c2ccc(Cl)c(Cl)c2)cc(-c2ccc(Br)cc2)nc1N` [MAP Kinase Inhibitor, 4] had a half-maximal inhibitory concentration (IC50) of 3680 nM.

`N#Cc1c(-c2c[nH]c3ccccc23)cc(-c2ccc(Br)cc2)nc1N` [MAP Kinase Inhibitor, 6] returned an IC50 of 2650 nM. This IC50 and that of the compound before are within 1.5-fold of each other.

The compound `N#Cc1c(-c2ccc(Br)cc2)cc(-c2ccc(Br)cc2)nc1N` [MAP Kinase Inhibitor, 7] came in with an IC50 of 760 nM.

Consider `COc1cc(-c2cc(-c3ccc(Br)cc3)[nH]c(=O)c2C#N)cc(OC)c1OC` [MAP Kinase Inhibitor, 8], for which it took 1220 nM to reach half-maximal inhibition (IC50).

For `N#Cc1c(-c2ccc(Cl)c(Cl)c2)cc(-c2ccc(Br)cc2)[nH]c1=O` [MAP Kinase Inhibitor, 11], the IC50 amounted to 120 nM.

In turn, `N#Cc1c(-c2ccc(Br)cc2)cc(-c2ccc(Br)cc2)[nH]c1=O` [MAP Kinase Inhibitor, 14] had an IC50 of 4400 nM. Compared with the last compound, the IC50 is about 37-fold higher.
